Laboratory results taken from patent US20230089582A1, “1,2,4-TRIAZINE-3,5-DIONE COMPOUND, PREPARATION METHOD THEREFOR, AND APPLICATION THEREOF” (KPC PHARMACEUTICALS, INC, priority 2019, published 2023).

Columns and labels:
[1] = target: T1, THRβ (Homo sapiens, UniProt P10828); test: THRβ binding assay (TR-FRET co-activating peptide recruitment); type: biochemical; settings: THRβ-LBD/RXRα, SRC2-2 co-activating peptide recruitment, agonistic effect
T1 construct: RXRα and GST-tagged THRβ-LBD
Protocol: Experimental method: In vitro analysis of the agonistic effect of the compounds on THRβ was performed using a time-resolved fluorescence resonance energy transfer co-activating peptide recruitment assay. The assay used Eu-anti-GST antibody, biotin-SRC2-2 co-activating peptide, streptavidin-d2, RXRα and GST-tagged THRβ-LBD. The Eu-anti-GST antibody indirectly labeled THRβ-LBD by binding to GST tag. Streptavidin-d2 indirectly labeled the SRC2-2 co-activating peptide by binding to biotin tag. In the presence of RXRα, THRβ-LBD can form a heterodimer THRβ-LBD/RXRα with it. The agonist bound to THRβ-LBD/RXRα and caused a conformational change of THRβ-LBD, thereby increasing the recruitment capacity of the heterodimer to the SRC2-2 co-activating peptide. Furthermore, the resulting decreased distance between the d2-labeled SRC2-2 co-activating peptide and the Eu-anti-GST antibody increased the […] signal. The agonistic ability of a compound can be assessed based on the effect of different concentrations of the compound on THRβ activity.
The detailed procedure is as follows.
a. 100× reference compound or compound was prepared with DMSO and diluted in 1:3.
e. The plates were centrifuged at 1000 rpm for 1 min and incubated for 4 h at room temperature shielded from light.

[2] = target: THRα (Homo sapiens, UniProt P10827); test: THRα binding assay (TR-FRET co-activating peptide recruitment); type: biochemical; settings: THRα instead of THRβ, agonistic effect
[3] = in vitro; settings: microsomes, pH 7.4
Protocol: The stop solution was an acetonitrile solution containing tolbutamide and propranolol (both internal standards).
Phosphate buffer was 100 mM K3PO4 (pH=7.4) buffer containing 3.3 mM MgCl2.
The liver microsome incubation system was in 100 mM phosphate buffer containing 0.2 mg/mL liver microsomal protein and 1 μM test substance/positive control.
80 μL of the mixture was transferred from the incubation system to 400 μL of stop solution to precipitate proteins, and 20 μL of NADPH regeneration system was added after vortexing as a 0 min sample point.
130 μL of NADPH regeneration system was added to the remaining 520 μL of protein drug mixture and mixed well to start incubation. The final incubation system was 650 μL, containing 0.2 mg/mL liver microsomal protein, 1 μM test substance/positive control, 1.3 mM NADP, 3.3 mM G-6-P and 0.6 U/mL G-6-PDH.

T1 sequence (P10828 217-461 limits assumed, other chains not shown): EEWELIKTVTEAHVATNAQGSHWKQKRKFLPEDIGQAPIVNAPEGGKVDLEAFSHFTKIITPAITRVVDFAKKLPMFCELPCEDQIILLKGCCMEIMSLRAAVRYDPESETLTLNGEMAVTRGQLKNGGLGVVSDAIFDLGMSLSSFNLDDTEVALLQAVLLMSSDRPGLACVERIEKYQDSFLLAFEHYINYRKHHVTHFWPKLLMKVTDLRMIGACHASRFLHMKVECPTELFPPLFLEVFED
T1 sequence (P19793 whole entry partner, other chains not shown, the tested form may be a part): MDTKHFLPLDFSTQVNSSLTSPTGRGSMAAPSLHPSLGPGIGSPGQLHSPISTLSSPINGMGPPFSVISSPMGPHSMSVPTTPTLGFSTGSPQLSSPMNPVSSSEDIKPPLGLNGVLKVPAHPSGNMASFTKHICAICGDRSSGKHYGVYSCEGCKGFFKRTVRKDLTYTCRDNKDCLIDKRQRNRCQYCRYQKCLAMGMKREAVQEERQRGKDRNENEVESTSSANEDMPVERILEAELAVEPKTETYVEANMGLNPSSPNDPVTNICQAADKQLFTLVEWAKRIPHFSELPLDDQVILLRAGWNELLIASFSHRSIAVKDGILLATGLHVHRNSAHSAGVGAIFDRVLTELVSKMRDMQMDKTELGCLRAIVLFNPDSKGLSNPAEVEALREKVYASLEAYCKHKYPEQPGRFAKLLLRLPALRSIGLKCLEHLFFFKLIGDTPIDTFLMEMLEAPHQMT
Sequence of THRα (P10827 163-410 isoform P10827-2 limits assumed, other chains not shown): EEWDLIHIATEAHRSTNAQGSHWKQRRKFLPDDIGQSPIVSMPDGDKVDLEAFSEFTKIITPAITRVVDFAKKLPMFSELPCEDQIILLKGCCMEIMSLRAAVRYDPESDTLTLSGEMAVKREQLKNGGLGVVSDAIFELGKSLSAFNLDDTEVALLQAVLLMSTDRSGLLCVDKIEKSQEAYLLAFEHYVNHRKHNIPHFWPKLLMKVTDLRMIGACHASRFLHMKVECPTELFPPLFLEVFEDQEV
Sequence of THRα (P19793 whole entry partner, other chains not shown): as the sequence (P19793 whole entry partner, other chains not shown, the tested form may be a part) above

An EC50 [1] of 0.042 µM, an Emax [1] of 117% and an EC50 [2] of 0.23 µM were found for `O=c1[nH]nc(Oc2c(Cl)cc(-n3nc(CF)c(=O)[nH]c3=O)cc2Cl)cc1C1CCC1` [Example 14, 2-(3,5-dichloro-4-((5-cyclobutyl-6-oxo-1,6-dihydropyridazin-3-yl)oxy)phenyl)-6-(fluoromethyl)-1,2,4-triazine-3,5(2H,4H)-dione] in this work. For the same compound, the Emax [2] was 124%.

An EC50 [1] of 0.164 µM and an Emax [1] of 111% were found for `CC(C)(F)c1cc(Oc2c(Cl)cc(-n3nc(CF)c(=O)[nH]c3=O)cc2Cl)n[nH]c1=O` [Example 16, 3-(3,5-dichloro-4-((5-(2-fluoropropan-2-yl)-6-oxo-1,6-dihydropyridazin-3-yl)oxy)phenyl)-6-(fluoromethyl)-1,2,4-triazine-3,5(2H,4H)-dione] in this work.

An EC50 [1] of 0.005 µM, an Emax [1] of 92.8% and an EC50 [2] of 0.19 µM were found for `CC(C)c1cc(Oc2c(Cl)cc(-n3nc(CF)c(=O)[nH]c3=O)cc2Cl)n[nH]c1=O` [Example 2] in this work. For the same compound, the Emax [2] was 107%, the half-life at 1 μM ([3]; dog) was 4.4 h and the microsomal CLint at 1 μM ([3]; dog) was 13.1 µL/min/mg. For the same compound, the half-life at 1 μM ([3]; human) was 17.1 h, the microsomal CLint at 1 μM ([3]; human) was 3.4 µL/min/mg and the half-life at 1 μM ([3]; monkey) was 8.92 h. For the same compound, the microsomal CLint at 1 μM ([3]; monkey) was 6.5 µL/min/mg, the half-life at 1 μM ([3]; mouse) was 3.12 h and the microsomal CLint at 1 μM ([3]; mouse) was 18.5 µL/min/mg. The half-life at 1 μM ([3]; rat) was 12.3 h and the microsomal CLint at 1 μM ([3]; rat) was 4.7 µL/min/mg.

An EC50 [1] of 0.094 µM, an Emax [1] of 110% and an EC50 [2] of 1.41 µM were found for `O=c1[nH]nc(Oc2c(Cl)cc(-n3nc(CF)c(=O)[nH]c3=O)cc2Cl)cc1C1CCCC1` [Example 10, 2-(3,5-dichloro-4-((5-cyclopentyl-6-oxo-1,6-dihydropyridazin-3-yl)oxy)phenyl)-6-(fluoromethyl)-1,2,4-triazine-3,5(2H,4H)-dione] in this work. For the same compound, the Emax [2] was 112%.

An EC50 [1] of 0.0236 µM and an Emax [1] of 124% were found for `C=C(C)c1cc(Oc2c(Cl)cc(-n3nc(CF)c(=O)[nH]c3=O)cc2Cl)n[nH]c1=O` [Example 18, 2-(3,5-dichloro-4-((6-oxo-5-(prop-1-en-2-yl)-1,6-dihydropyridazin-3-yl)oxy)phenyl)-6-(fluoromethyl)-1,2,4-triazine-3,5(2H,4H)-dione] in this work.

An EC50 [1] greater than 10 µM was found for `CC(C)c1cc(Oc2c(Cl)cc(-n3nc(O)c(=O)[nH]c3=O)cc2Cl)n[nH]c1=O` [Example 20, 2-(3,5-dichloro-4-((5-isopropyl-6-oxo-1,6-dihydropyridazin-3-yl)oxy)phenyl)-6-hydroxy-1,2,4-triazine-3,5(2H,4H)-dione] in this work.

An EC50 [1] of 0.071 µM, an Emax [1] of 105% and an EC50 [2] of 0.21 µM were found for `O=c1[nH]nc(Oc2c(Cl)cc(-n3nc(CF)c(=O)[nH]c3=O)cc2Cl)cc1C1CC1` [Example 12, 2-(3,5-dichloro-4-((5-cyclopropyl-6-oxo-1,6-dihydropyridazin-3-yl)oxy)phenyl)-6-(fluoromethyl)-1,2,4-triazine-3,5(2H,4H)-dione] in this work. It also gave an Emax [2] of 127%.

An EC50 [1] of 0.101 µM, an Emax [1] of 108% and an EC50 [2] of 4.26 µM were found for `O=c1[nH]nc(Oc2c(Cl)cc(-n3nc(CF)c(=O)[nH]c3=O)cc2Cl)cc1C1CCCCC1` [Example 9, 2-(3,5-dichloro-4-((5-cyclohexyl-6-oxo-1,6-dihydropyridazin-3-yl)oxy)phenyl)-6-(fluoromethyl)-1,2,4-triazine-3,5(2H,4H)-dione] in this work. The Emax [2] was 123%.

An EC50 [1] of 7.25 µM and an Emax [1] of 77.7% were found for `CC(C)c1cc(Oc2c(Cl)cc(-n3nc(C4CC4)c(=O)[nH]c3=O)cc2Cl)n[nH]c1=O` [Example 19, 6-cyclopropyl-2-(3,5-dichloro-4-((5-isopropyl-6-oxo-1,6-dihydropyridazin-3-yl)oxy)phenyl)-1,2,4-triazine-3,5(2H,4H)-dione] in this work.

A half-life at 1 μM ([3]; dog) of 2 h, a microsomal CLint at 1 μM ([3]; dog) of 28.9 µL/min/mg and a half-life at 1 μM ([3]; human) of 5.18 h were found for `CC(C)c1cc(Oc2c(Cl)cc(-n3nc(C#N)c(=O)[nH]c3=O)cc2Cl)n[nH]c1=O` [Control compound 2, MGL-3196, reference compound] in this work. It also gave a microsomal CLint at 1 μM ([3]; human) of 11.2 µL/min/mg, a half-life at 1 μM ([3]; monkey) of 4.96 h and a microsomal CLint at 1 μM ([3]; monkey) of 11.6 µL/min/mg. For the same compound, the half-life at 1 μM ([3]; rat) was 12.8 h and the microsomal CLint at 1 μM ([3]; rat) was 4.5 µL/min/mg.
